This note sets out measurements from patent publication US4686230A, “Picoline derivative useful as gastric acid secretion inhibitors” (Byk Gulden Lomberg Chemische Fabrik GmbH, priority 1984, dated 1987).

For test [1], the system named is stomach lesions induced by pylorus ligature and oral administration of 100 mg/kg of acetylsalicylic acid. As to the kind of experiment: Protective action on the stomach (anti-ulcerogenic action), Shay rats: pylorus ligature + acetylsalicylic acid. It is filed as in vivo. The following applies: Rattus norvegicus, 1 h, orally, dose which reduces the mean lesion index by 50% vs control, given one hour before pylorus ligature, read-out: Protective action on the stomach (rats), inhibition of the lesion index, ED50. The method, then: (§1) The investigated compounds according to the invention have been given numbers as follows:
(§2) The effects of the investigated compounds on the formation of stomach lesions induced by pylorus ligature and oral administration of 100 mg/kg of acetylsalicylic acid and the gastric secretion (HCl) for 4 h in rats (so-called Shay rats) are shown in the table which follows.
(§3) + ED25 and ED50 = dose which reduces the lesion index and the HCl
(§4) secretion (Σ4 h) of the rat stomach in the treated group by 25 and
(§5) 50% respectively, as compared with the control group.
The anti-ulcerogenic action was tested by the method of so-called Shay rats:
The ulcers are provoked in rats (female, 180-200 g, 4 animals in each cage on a high grid) kept fasting for 24 hours by pylorus ligature (under diethyl ether anaesthesia) and oral administration of 100 mg/10 ml/kg of acetylsalicylic acid. The substances to be tested are administered orally (10 ml/kg) one hour before the pylorus ligature. The wounds are closed by means of Michel clamps. 4 hours later, the animals are killed under ether intoxication by atlas dislocation and the stomach is resected. The stomach is opened longitudinally and fixed on a cork plate, after first determining the quantity of the secreted gastric juice (volume) and later its HCl content (titration with sodium hydroxide solution); the number and size (=diameter) of existing ulcers was determined by means of a stereomicroscope at 10-fold magnification. The product of the degree of severity (according to the points rating below) and of the number of ulcers is used as the individual lesion index. […]
(§6) The reduction in the mean lesion index of each treated group as compared with that of the control group (=100%) is taken as the measure of the anti-ulcerogenic effect.

In a further test the test system is gastric secretion (HCl). As to the kind of experiment: Inhibition of the HCl secretion of the stomach, Shay rats. It is filed as in vivo, rat. The following applies: total 4 h; for ED25 / ED50: Rattus norvegicus, po, orally; for ED25: dose which reduces HCl secretion by 25% vs control; for ED50: dose which reduces HCl secretion by 50% vs control; for % inhibition of the HCl secretion: after administration of the antiulcer ED50. On the procedure:
as §1, §2, §3, §4, §5
++ after administration of the antiulcer ED50
The ulcers are provoked in rats (female, 180-200 g, 4 animals in each cage on a high grid) kept fasting for 24 hours by pylorus ligature (under diethyl ether anaesthesia) and oral administration of 100 mg/10 ml/kg of acetylsalicylic acid. The substances to be tested are administered orally (10 ml/kg) one hour before the pylorus ligature. The wounds are closed by means of Michel clamps. 4 hours later, the animals are killed under ether intoxication by atlas dislocation and the stomach is resected. The stomach is opened longitudinally and fixed on a cork plate, after first determining the quantity of the secreted gastric juice (volume) and later its HCl content (titration with sodium hydroxide solution); the number and size (=diameter) of existing ulcers was determined by means of a stereomicroscope at 10-fold magnification. The product of the degree of severity (according to the points rating below) and of the number of ulcers is used as the individual lesion index.
as §6

Turning to `COc1ccnc(C(C)[S+]([O-])c2nc3cc(OC(F)(F)C(F)Cl)ccc3[nH]2)c1` (stereo not shown) [Serial No. 7], the ED50 in test [1] worked out at 0.6 mg/kg. Also, in the test on gastric secretion (HCl), the ED25 came out at 0.4 mg/kg, the ED50 was 0.8 mg/kg and the “% inhibition of the HCl secretion” value turned out to be 40%.

Regarding `COc1ccnc(C[S+]([O-])c2nc3cc(OC(F)(F)C(F)Cl)ccc3[nH]2)c1` (stereo not shown) [Serial No. 6, 5-(2-Chloro-1,1,2-trifluoroethoxy)-2-[(4-methoxy-2-pyridyl)methylsulphinyl]-1H-benzimidazole], in test [1], the ED50 was determined as 0.55 mg/kg. Further, in the test with gastric secretion (HCl), the ED25 was found to be 0.55 mg/kg, the ED50 is 1.3 mg/kg and the “% inhibition of the HCl secretion” value was 25%.

For the compound `COc1ccnc(CSc2nc3c(C)c(OC(F)F)c(C)cc3[nH]2)c1C` [Serial No. 8, 5-Difluoromethoxy-2-[(4-methoxy-3-methyl-2-pyridyl)methylthio]-4,6-dimethyl-1H-benzimidazole], the ED50 in test [1] was determined as 0.7 mg/kg. For the same compound, in the test with gastric secretion (HCl), the ED25 turned out to be 1 mg/kg, it took a dose of 1 mg/kg to reach the 50% effect level (ED50) and the “% inhibition of the HCl secretion” value was determined as 15%.

Take `COc1ccnc(C(C)[S+]([O-])c2nc3cc(OC(F)F)c(OC)cc3[nH]2)c1` (stereo not shown) [Serial No. 2, 5-Difluoromethoxy-6-methoxy-2-{[1-(4-methoxy-2-pyridyl)ethyl]sulphinyl}-1H-benzimidazole]: the ED50 in test [1] is 0.6 mg/kg. Moreover, in the test with gastric secretion (HCl), the ED25 is about 1 mg/kg, the median effective dose (ED50) is about 2 mg/kg and the “% inhibition of the HCl secretion” value is given as ~ 20%.

In the case of `COc1ccnc(C[S+]([O-])c2nc3c(C)c(OC(F)F)c(C)cc3[nH]2)c1OC` (stereo not shown) [Serial No. 4, 5-Difluoromethoxy-2-[(3,4-dimethoxy-2-pyridyl)-methylsulphinyl]-4,6-dimethyl-1H-benzimidazole], the ED50 in test [1] is about 1 mg/kg. In the test on gastric secretion (HCl), the ED25 was about 1.3 mg/kg, the ED50 was about 2 mg/kg and the “% inhibition of the HCl secretion” value stood at 10%.

Turning to `COc1ccnc(C(C)Sc2nc3cc(OC(F)F)c(OC)cc3[nH]2)c1` (stereo not shown) [Serial No. 9, 5-Difluoromethoxy-6-methoxy-2-{[1-(4-methoxy-2-pyridyl)ethyl]thio}-1H-benzimidazole], in test [1], the ED50 stood at 1.7 mg/kg. Further, in the test on gastric secretion (HCl), the ED25 was under 1 mg/kg, the ED50 is about 4 mg/kg and the “% inhibition of the HCl secretion” value turned out to be 35%.

For `COc1ccnc(C[S+]([O-])c2nc3cc(OC(F)(F)C(F)Cl)ccc3[nH]2)c1C` (stereo not shown) [compound 10], in test [1], the ED50 amounted to 0.4 mg/kg. In the test with gastric secretion (HCl), the ED25 amounted to 0.4 mg/kg, the ED50 is 0.8 mg/kg and the “% inhibition of the HCl secretion” value worked out at 27%.

Turning to `COc1ccnc(C(C)[S+]([O-])c2nc3cc(OC(F)(F)C(F)F)ccc3[nH]2)c1` (stereo not shown) [Serial No. 3, 5-(1,1,2,2-Tetrafluoroethoxy)-2-{[1-(4-methoxy-2-pyridyl)ethyl]sulphinyl}-1H-benzimidazole], in test [1], the ED50 came to 0.5 mg/kg. In addition, in the test with gastric secretion (HCl), the ED25 was 0.35 mg/kg, the ED50 is 0.8 mg/kg and the “% inhibition of the HCl secretion” value came out at 35%.

`COc1ccnc(C[S+]([O-])c2nc3c(C)c(OC(F)F)c(C)cc3[nH]2)c1C` (stereo not shown) [Serial No. 1, 5-Difluoromethoxy-2-[(4-methoxy-3-methyl-2-pyridyl)methylsulphinyl]-4,6-dimethyl-1H-benzimidazole]: the ED50 in test [1] worked out at 0.5 mg/kg. Besides, in the test with gastric secretion (HCl), the ED25 came to 0.5 mg/kg, the ED50 came to 1.1 mg/kg and the “% inhibition of the HCl secretion” value came out at 22%.

As to `COc1ccnc(C(C)[S+]([O-])c2nc3cc4c(cc3[nH]2)OC(F)(F)O4)c1` (stereo not shown) [compound 5], the 50% effective dose (ED50) in test [1] amounted to 1 mg/kg. In addition, in the test with gastric secretion (HCl), the ED25 came to 1 mg/kg, the 50% effect level (ED50) was put at a dose of 1.7 mg/kg and the “% inhibition of the HCl secretion” value was 25%.

A word on the ED50: it is the dose at which the effect has come halfway, by size or by number of responders.
